Where two headings read alike, the source gives them in different places.
Columns and labels:
[1] = molecular target: T1, Mycobacterium tuberculosis pantothenate synthetase (Mycobacterium tuberculosis, UniProt P9WIL4); experiment: isothermal titration calorimetry (ITC); format: binding; conditions: read-out: K D [μM]^[a]
T1 construct: gene panC
Description: isothermal titration calorimetry (ITC) on Mycobacterium tuberculosis pantothenate synthetase

[2] = molecular target: T1, Mycobacterium tuberculosis pantothenate synthetase; experiment: enzyme inhibition assay; format: biochemical

T1 sequence (P9WIL4 2-309 limits assumed): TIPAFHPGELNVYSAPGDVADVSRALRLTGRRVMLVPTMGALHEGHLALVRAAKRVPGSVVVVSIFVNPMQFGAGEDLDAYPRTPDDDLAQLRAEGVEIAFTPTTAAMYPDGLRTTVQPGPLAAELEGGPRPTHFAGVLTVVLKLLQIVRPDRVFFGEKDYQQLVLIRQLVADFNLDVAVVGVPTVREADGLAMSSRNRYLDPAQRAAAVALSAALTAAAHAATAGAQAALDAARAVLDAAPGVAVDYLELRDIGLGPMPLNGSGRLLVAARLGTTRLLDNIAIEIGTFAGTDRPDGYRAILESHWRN

Compound | Kd [1] | IC50 [2] | Kd ([1]; active site, lead compound of the group's earlier work, cited from earlier work)
COc1ccc2c(c1)cc(C(=O)NS(=O)(=O)c1ccc(C(C)(C)C)cc1)n2CC(=O)O [compound 12, 12] | 0.46 µM |  | 
COc1ccc2c(c1)cc(C(=O)NS(=O)(=O)N1CCN(C(C)=O)CC1)n2CC(=O)O [compound 16, 16] | 17 µM |  | 
COc1ccc2c(c1)cc(C(=O)NS(=O)(=O)Cc1ccc(C(F)(F)F)cc1)n2CC(=O)O [compound 20, 20] |  | 253 nM | 
COc1ccc2c(c1)cc(C(=O)NS(=O)(=O)c1ccc(NC(C)=O)cc1)n2CC(=O)O [compound 18, 18] | 6 µM |  | 
COc1ccc2c(c1)cc(C(=O)NS(=O)(=O)c1ccc(C)cn1)n2CC(=O)O [compound 5, 5] |  |  | 1.5 µM
COc1ccc2c(c1)cc(C(=O)NS(=O)(=O)c1ccc3ccccc3c1)n2CC(=O)O [compound 13, 13] | 0.61 µM |  | 
COc1ccc2c(c1)cc(C(=O)NS(=O)(=O)c1ccc(C(F)(F)F)cc1[N+](=O)[O-])n2CC(=O)O [compound 14, 14] | 0.8 µM |  | 
COc1ccc2c(c1)cc(C(=O)NS(=O)(=O)c1ccc(C(F)(F)F)cc1)n2CC(=O)O [compound 11, 11] | 0.2 µM | 5700 nM | 
COc1ccc(S(=O)(=O)NC(=O)c2cc3cc(OC)ccc3n2CC(=O)O)cc1 [compound 19, 19] | 2 µM |  | 
COc1ccc2c(c1)cc(C(=O)NS(=O)(=O)N1CCOCC1)n2CC(=O)O [compound 15, 15] | 3.5 µM |  | 
COc1ccc2c(c1)cc(C(=O)NS(=O)(=O)c1ccc(C)cc1)n2CC(=O)O [compound 10, 10] | 0.34 µM |  | 

— PMC4949533, “Optimization of Inhibitors of Mycobacterium tuberculosis Pantothenate Synthetase Based on Group Efficiency Analysis” (Chemmedchem, 2015)
